Assay results taken from patent US8952024B2, “Herbicidal pyrimidone derivatives” (E I du Pont de Nemours and Company, priority 2009, dated 2015).

Tests used:
Assay type in all cases: in vivo
[1] = system: winter barley (Hordeum vulgare); test: Test B postemergence plant response; details: for Barley plant response rating (0 to 100 scale): 62 g ai/ha, 0 is no effect, 13 to 15 days
In short: (§1)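 Plants grown in peat/vermiculite medium were sprayed postemergence at 2–18 cm height (1- to 4-leaf stage). After 13–15 days in the greenhouse, response was rated visually against untreated controls on a 0–100 scale (0 no effect, 100 complete control).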

[2] = system: chickweed (Stellaria media); test: Test B postemergence plant response; details: for Chickweed plant response rating (0 to 100 scale): 62 g ai/ha, 0 is no effect, 13 to 15 days
In short: as §1

[3] = system: canarygrass (Phalaris minor); test: Test B postemergence plant response; details: for Canarygrass plant response rating (0 to 100 scale): 62 g ai/ha, 0 is no effect, 13 to 15 days
In short: as §1

[4] = system: windgrass (Apera spica-venti); test: Test B postemergence plant response; details: for Windgrass plant response rating (0 to 100 scale): 62 g ai/ha, postemergence, 0 is no effect, 100 is complete control, 13 to 15 days; for Plant response rating, Windgrass: Postemergence
In short: as §1

[5] = system: large crabgrass (Digitaria sanguinalis); test: Test A pre-/postemergence plant response
In short: (§2)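 Visually rated 0–100 injury (100 = complete control) versus untreated plants, ~10 days in greenhouse. Application pre- (soil spray, loam/sand) and postemergence (2–10 cm, 1–2 leaf stage), same timepoint.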

[6] = system: wheat (Triticum aestivum); test: Test A pre-/postemergence plant response
In short: as §2

[7] = system: morningglory (Ipomoea spp.); test: Test A pre-/postemergence plant response
In short: as §2

[8] = system: corn (Zea mays); test: Test A pre-/postemergence plant response
In short: as §2

[9] = system: giant foxtail (Setaria faberii); test: Test A pre-/postemergence plant response
In short: as §2

[10] = system: velvetleaf (Abutilon theophrasti); test: Test A pre-/postemergence plant response
In short: as §2

[11] = postemergence, 100 is complete control
[12] = Postemergence, 31 g ai/ha, 0 to 100 scale (0 no effect, 100 complete control)
[13] = Postemergence, 125 g ai/ha, scale 0 to 100 (0 no effect, 100 complete control)
[14] = Postemergence, 250 g ai/ha, scale 0 to 100 (0 no effect, 100 complete control)
[15] = 125 g ai/ha, scale 0 to 100 (0 no effect, 100 complete control)
[16] = Postemergence, 125 g ai/ha, 0 to 100 scale where 0 is no effect and 100 is complete control
[17] = Postemergence, 500 g ai/ha, 0 to 100 scale, 0 = no effect, 100 = complete control, approx. ten days
[18] = Preemergence, 125 g ai/ha, 0 to 100 scale, 0 = no effect, 100 = complete control
[19] = Preemergence, 500 g ai/ha, visual injury, 0 to 100 scale (0 no effect, 100 complete control), approx. ten days
[20] = 31 g ai/ha, postemergence, scale 0 to 100, 0 is no effect, 100 is complete control

| SMILES | Barley plant response rating (0 to 100 scale) [1, 11] | Plant response rating, Barley [1, 13] | Plant response rating, Barley [1, 14] | Chickweed plant response rating (0 to 100 scale) [2, 11] | Plant response rating, Chickweed [2, 13] | Plant response rating, Chickweed [2, 14] | Canarygrass plant response rating (0 to 100 scale) [3, 11] | Plant response rating, Canarygrass [3, 13] | Plant response rating, Canarygrass [3, 14] | Windgrass plant response rating (0 to 100 scale) [4] | Plant response rating, Windgrass [4, 15] | Plant response rating, Crabgrass, Large [5, 16] | Plant response rating, Crabgrass, Large [5, 17] | Plant response rating, Crabgrass, Large [5, 18] | Plant response rating, Crabgrass, Large [5, 19] | Plant response rating, Wheat [6, 16] | Plant response rating, Wheat [6, 17] | Plant response rating, Wheat [6, 18] | Plant response rating, Wheat [6, 19] | Plant response rating, Morningglory [7, 16] | other results |
| --- | --- | --- | --- | --- | --- | --- | --- | --- | --- | --- | --- | --- | --- | --- | --- | --- | --- | --- | --- | --- | --- |
| COCCCn1c(-c2cccc(F)c2)ncc(C(=O)C2=C(O)CCCC2=O)c1=O [Compound 126] | 5 | 15 | 40 | 80 | 98 | 98 | 40 | 60 | 90 | 10 | 40 | 90 | 90 | 90 | 100 | 0 | 20 | 0 | 20 | 100 | Plant response rating, Barley [1, 12]: 5; Plant response rating, Chickweed [2, 12]: 65; Plant response rating, Canarygrass [3, 12]: 15; Plant response rating, Windgrass ([4]; 31 g ai/ha, 0 to 100 scale (0 no effect, 100 complete control)): 10; Plant response rating, Morningglory [7, 17]: 100; Plant response rating, Morningglory [7, 18]: 70; Plant response rating, Morningglory [7, 19]: 90; Plant response rating, Corn [8, 16]: 10; Plant response rating, Corn [8, 17]: 60; Plant response rating, Corn [8, 18]: 0; Plant response rating, Corn [8, 19]: 20; Plant response rating, Foxtail, Giant [9, 16]: 70; Plant response rating, Foxtail, Giant [9, 17]: 80; Plant response rating, Foxtail, Giant [9, 18]: 60; Plant response rating, Foxtail, Giant [9, 19]: 90; Plant response rating, Velvetleaf [10, 16]: 100; Plant response rating, Velvetleaf [10, 17]: 100; Plant response rating, Velvetleaf [10, 18]: 80; Plant response rating, Velvetleaf [10, 19]: 100 |
| CCCn1c(-c2cccc(OC)c2)ncc(C(=O)C2=C(O)CCCC2=O)c1=O [Compound 100] | 20 | 30 | 50 | 75 | 95 | 100 | 5 | 5 | 10 | 40 | 45 | 80 | 90 | 80 | 90 | 0 | 30 | 0 | 0 | 90 | Plant response rating, Barley [1, 20]: 5; Plant response rating, Chickweed [2, 20]: 75; Plant response rating, Canarygrass [3, 20]: 0; Plant response rating, Morningglory [7, 17]: 100; Plant response rating, Morningglory [7, 18]: 70; Plant response rating, Morningglory [7, 19]: 80; Plant response rating, Corn [8, 16]: 0; Plant response rating, Corn [8, 17]: 0; Plant response rating, Corn [8, 18]: 0; Plant response rating, Corn [8, 19]: 0; Plant response rating, Foxtail, Giant [9, 16]: 80; Plant response rating, Foxtail, Giant [9, 17]: 90; Plant response rating, Foxtail, Giant [9, 18]: 50; Plant response rating, Foxtail, Giant [9, 19]: 80; Plant response rating, Velvetleaf [10, 16]: 100; Plant response rating, Velvetleaf [10, 17]: 100; Plant response rating, Velvetleaf [10, 18]: 60; Plant response rating, Velvetleaf [10, 19]: 80 |
